What was measured:
[1] = target: T1, Synaptic vesicular amine transporter (Rattus norvegicus, UniProt Q01827); experiment: Displacement of [3H]-DTBZ from VMAT2 in rat striatal membrane homogenates; type: cell membranes, Striatum
[2] = target: T1, Synaptic vesicular amine transporter; experiment: Displacement of [125I]-iodovinyl-TBZ from VMAT2 in rat striatal membrane homogenates; type: cell membranes, Striatum
[3] = Ratio of drug level in striatum to cerebellum in iv dosed mouse after 30 mins; type: ADME, organism-based; settings: in vivo, 0.5 h
[4] = target: Synaptic vesicular amine transporter (Homo sapiens, UniProt Q05940); experiment: Binding affinity to VMAT2
Sequence of Synaptic vesicular amine transporter (Homo sapiens, UniProt Q05940) (Q05940 whole entry): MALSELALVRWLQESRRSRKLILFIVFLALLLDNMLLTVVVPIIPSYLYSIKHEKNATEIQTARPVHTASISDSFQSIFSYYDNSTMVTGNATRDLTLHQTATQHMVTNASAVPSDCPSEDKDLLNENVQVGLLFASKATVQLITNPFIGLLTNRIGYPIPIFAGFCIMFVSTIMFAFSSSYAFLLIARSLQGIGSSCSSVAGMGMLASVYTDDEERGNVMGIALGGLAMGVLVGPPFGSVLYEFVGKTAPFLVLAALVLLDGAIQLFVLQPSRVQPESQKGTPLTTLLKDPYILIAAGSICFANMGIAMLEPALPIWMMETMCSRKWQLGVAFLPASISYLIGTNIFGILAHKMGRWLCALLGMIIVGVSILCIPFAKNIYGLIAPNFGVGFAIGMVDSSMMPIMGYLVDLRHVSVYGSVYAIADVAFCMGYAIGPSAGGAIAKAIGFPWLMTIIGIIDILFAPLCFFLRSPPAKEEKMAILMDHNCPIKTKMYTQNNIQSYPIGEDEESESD

T1 sequence (Q01827 whole entry): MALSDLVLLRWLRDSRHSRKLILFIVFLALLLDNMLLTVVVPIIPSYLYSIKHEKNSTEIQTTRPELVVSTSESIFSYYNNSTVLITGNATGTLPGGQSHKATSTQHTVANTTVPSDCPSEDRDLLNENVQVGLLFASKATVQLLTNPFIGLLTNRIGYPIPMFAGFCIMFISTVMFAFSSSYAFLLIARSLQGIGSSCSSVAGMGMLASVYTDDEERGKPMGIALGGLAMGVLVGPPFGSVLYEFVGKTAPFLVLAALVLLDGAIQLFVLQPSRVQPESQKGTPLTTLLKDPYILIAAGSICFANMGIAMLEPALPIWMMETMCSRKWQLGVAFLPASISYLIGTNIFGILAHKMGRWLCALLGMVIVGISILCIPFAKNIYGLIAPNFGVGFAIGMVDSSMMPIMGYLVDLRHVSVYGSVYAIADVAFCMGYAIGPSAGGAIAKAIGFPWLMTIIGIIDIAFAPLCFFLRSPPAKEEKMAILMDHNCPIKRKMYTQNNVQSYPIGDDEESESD

SMILES: COc1cc2c(cc1OC)C1CC(N)C(CC(C)C)CN1CC2 (stereo unspecified)
- Ki [1]: 150 nM
- Ki [2]: 45 nM

SMILES: COc1cc2c(cc1OC)C1CC(NCCCF)C(CC(C)C)CN1CC2 (stereo unspecified)
- Ki [1]: 7.01 nM
- Ki [2]: 8.68 nM

SMILES: CNC1CC2c3cc(OC)c(OC)cc3CCN2CC1CC(C)C (stereo unspecified)
- Ki [1]: 269 nM
- Ki [2]: 199 nM

SMILES: COc1cc2c(cc1OC)C1CC(NCCF)C(CC(C)C)CN1CC2 (mixture of isomers)
- Ki [1]: 230 nM
- Ki [2]: 28 nM

SMILES: COc1cc2c(cc1OC)C1CC(NCCF)C(CC(C)C)CN1CC2 (single isomer, unassigned; diastereomer 2)
- Ki [1]: 686 nM
- Ki [2]: 226 nM

SMILES: COc1cc2c(cc1OC)C1CC(NCCF)C(CC(C)C)CN1CC2 (stereo in doubt; 4-I)
- Ki [1]: 8.63 nM
- Ki [2]: 9.21 nM

SMILES: COc1cc2c(cc1OCCCF)CCN1C[C@@H](CC(C)C)[C@H](O)C[C@H]21 [FLORBENAZINE]
- Ki [1]: 0.36 nM
- Ki [2]: 0.24 nM
- Ratio [3]: 4.51
- Ki [4]: 0.1 nM

From ChEMBL document CHEMBL1155310, “Synthesis and evaluation of 2-amino-dihydrotetrabenzine derivatives as probes for imaging vesicular monoamine transporter-2” (Bioorg Med Chem Lett, 2009)
